“And” between values parts separate entries of the source, which are not always exact repeats. Identical values can stand only once. Like-named read-outs stand apart in the source and are kept apart here.
Key:
[1] = Volatility of compounds measured by thermogravimetric analysis (TGA); assay type: physicochemical
[2] = test system: Abutilon theophrasti (ABUTH), velvetleaf; experiment: Postemergence herbicide evaluation, growth of Abutilon theophrasti (ABUTH); assay type: in vivo; settings: Abutilon theophrasti, post-emergence, percent reduction in plant size vs untreated control, read-out: AVE. ABUTH; for pest or weed control at 280 g/ha: 280 g ae/ha; for pest or weed control at 560 g/ha: 560 g ae/ha
[3] = test system: Ambrosia artemisiifolia (AMBEL), common ragweed; experiment: Postemergence herbicide evaluation, growth of Ambrosia artemisiifolia (AMBEL); assay type: in vivo; settings: Ambrosia artemisiifolia, post-emergence, percent reduction in plant size vs untreated control, read-out: AVE. AMBEL; for pest or weed control at 280 g/ha: 280 g ae/ha; for pest or weed control at 560 g/ha: 560 g ae/ha
[4] = test system: weeds ABUTH, AMATA, AMBEL, CHEAL, ERICA; experiment: Postemergence herbicide evaluation, overall average % weed control across ABUTH, AMATA, AMBEL, CHEAL and ERICA; assay type: in vivo; settings: post-emergence, average over five weeds, read-out: Overall Ave % Weed Control; for pest or weed control at 280 g/ha: 280 g ae/ha; for pest or weed control at 560 g/ha: 560 g ae/ha
[5] = test system: glyphosate resistant Conyza canadensis (L.) (ERICA), horseweed; experiment: Postemergence herbicide evaluation, growth of Conyza canadensis (ERICA); assay type: in vivo; settings: Erigeron canadensis, post-emergence, percent reduction in plant size vs untreated control, read-out: Ave. ERICA; for pest or weed control at 280 g/ha: 280 g ae/ha; for pest or weed control at 560 g/ha: 560 g ae/ha
[6] = test system: Amaranthus rudis (AMATA), tall water hemp; experiment: Postemergence herbicide evaluation, growth of Amaranthus rudis (AMATA); assay type: in vivo; settings: Amaranthus tuberculatus, post-emergence, percent reduction in plant size vs untreated control, read-out: Ave. AMATA; for pest or weed control at 280 g/ha: 280 g ae/ha; for pest or weed control at 560 g/ha: 560 g ae/ha
[7] = test system: Chenopodium album (CHEAL), common lambsquarters; experiment: Postemergence herbicide evaluation, growth of Chenopodium album (CHEAL); assay type: in vivo; settings: Chenopodium album, post-emergence, percent reduction in plant size vs untreated control, read-out: Ave. CHEAL; for pest or weed control at 280 g/ha: 280 g ae/ha; for pest or weed control at 560 g/ha: 560 g ae/ha
[8] = value marked *: decomposition of the material was observed

SMILES: O=C(COc1ccc(Cl)cc1Cl)ONC(=O)C1CCCC1 [Compound A20]
- TGA Data (rate of weight loss, volatility) [1]: 1.83 µg/min
- TGA Data (rate of weight loss, volatility) [1, 8]: 2.946* μg/min and 1.83* μg/min
- pest or weed control at 280 g/ha ([2]; 168 h, 7 DAA): 60%
- pest or weed control at 560 g/ha ([2]; 168 h, 7 DAA): 87.5%
- pest or weed control at 280 g/ha ([2]; 336 h, 14 DAA): 79%
- pest or weed control at 560 g/ha ([2]; 336 h, 14 DAA): 100%
- pest or weed control at 280 g/ha ([2]; 504 h, 21 DAA): 92.5%
- pest or weed control at 560 g/ha ([2]; 504 h, 21 DAA): 100%
- pest or weed control at 280 g/ha ([3]; 168 h, 7 DAA): 72.5%
- pest or weed control at 560 g/ha ([3]; 168 h, 7 DAA): 85%
- pest or weed control at 280 g/ha ([3]; 336 h, 14 DAA): 100%
- pest or weed control at 560 g/ha ([3]; 336 h, 14 DAA): 85%
- pest or weed control at 280 g/ha ([3]; 504 h, 21 DAA): 100%
- pest or weed control at 560 g/ha ([3]; 504 h, 21 DAA): 100%
- pest or weed control at 280 g/ha ([4]; 168 h, 7 DAA): 75.3%
- pest or weed control at 560 g/ha ([4]; 168 h, 7 DAA): 84.5%
- pest or weed control at 280 g/ha ([4]; 336 h, 14 DAA): 93.1%
- pest or weed control at 560 g/ha ([4]; 336 h, 14 DAA): 92.4%
- pest or weed control at 280 g/ha ([4]; 504 h, 21 DAA): 97.5%
- pest or weed control at 560 g/ha ([4]; 504 h, 21 DAA): 95.7%
- pest or weed control at 280 g/ha ([5]; 168 h, 7 DAA): 75%
- pest or weed control at 560 g/ha ([5]; 168 h, 7 DAA): 80%
- pest or weed control at 280 g/ha ([5]; 336 h, 14 DAA): 98.5%
- pest or weed control at 560 g/ha ([5]; 336 h, 14 DAA): 94.5%
- pest or weed control at 280 g/ha ([5]; 504 h, 21 DAA): 100%
- pest or weed control at 560 g/ha ([5]; 504 h, 21 DAA): 100%
- pest or weed control at 280 g/ha ([6]; 168 h, 7 DAA): 91.5%
- pest or weed control at 560 g/ha ([6]; 168 h, 7 DAA): 92.5%
- pest or weed control at 280 g/ha ([6]; 336 h, 14 DAA): 90%
- pest or weed control at 560 g/ha ([6]; 336 h, 14 DAA): 90%
- pest or weed control at 280 g/ha ([6]; 504 h, 21 DAA): 100%
- pest or weed control at 560 g/ha ([6]; 504 h, 21 DAA): 82.5%
- pest or weed control at 280 g/ha ([7]; 168 h, 7 DAA): 77.5%
- pest or weed control at 560 g/ha ([7]; 168 h, 7 DAA): 77.5%
- pest or weed control at 280 g/ha ([7]; 336 h, 14 DAA): 98%
- pest or weed control at 560 g/ha ([7]; 336 h, 14 DAA): 92.5%
- pest or weed control at 280 g/ha ([7]; 504 h, 21 DAA): 95%
- pest or weed control at 560 g/ha ([7]; 504 h, 21 DAA): 96%

SMILES: CCN(CC)OC(=O)COc1ccc(Cl)cc1Cl [Compound A21]
- TGA Data (rate of weight loss, volatility) [1, 8]: 1.352* μg/min
- pest or weed control at 280 g/ha ([2]; 168 h, 7 DAA): 60%
- pest or weed control at 560 g/ha ([2]; 168 h, 7 DAA): 87.5%
- pest or weed control at 280 g/ha ([2]; 336 h, 14 DAA): 67.5%
- pest or weed control at 560 g/ha ([2]; 336 h, 14 DAA): 94.5%
- pest or weed control at 280 g/ha ([2]; 504 h, 21 DAA): 90%
- pest or weed control at 560 g/ha ([2]; 504 h, 21 DAA): 99.5%
- pest or weed control at 280 g/ha ([3]; 168 h, 7 DAA): 70%
- pest or weed control at 560 g/ha ([3]; 168 h, 7 DAA): 70%
- pest or weed control at 280 g/ha ([3]; 336 h, 14 DAA): 80%
- pest or weed control at 560 g/ha ([3]; 336 h, 14 DAA): 98%
- pest or weed control at 280 g/ha ([3]; 504 h, 21 DAA): 100%
- pest or weed control at 560 g/ha ([3]; 504 h, 21 DAA): 100%
- pest or weed control at 280 g/ha ([4]; 168 h, 7 DAA): 74.5%
- pest or weed control at 560 g/ha ([4]; 168 h, 7 DAA): 81.5%
- pest or weed control at 280 g/ha ([4]; 336 h, 14 DAA): 84.4%
- pest or weed control at 560 g/ha ([4]; 336 h, 14 DAA): 94.1%
- pest or weed control at 280 g/ha ([4]; 504 h, 21 DAA): 93%
- pest or weed control at 560 g/ha ([4]; 504 h, 21 DAA): 99.7%
- pest or weed control at 280 g/ha ([5]; 168 h, 7 DAA): 85%
- pest or weed control at 560 g/ha ([5]; 168 h, 7 DAA): 82.5%
- pest or weed control at 280 g/ha ([5]; 336 h, 14 DAA): 92%
- pest or weed control at 560 g/ha ([5]; 336 h, 14 DAA): 94%
- pest or weed control at 280 g/ha ([5]; 504 h, 21 DAA): 97.5%
- pest or weed control at 560 g/ha ([5]; 504 h, 21 DAA): 100%
- pest or weed control at 280 g/ha ([6]; 168 h, 7 DAA): 80%
- pest or weed control at 560 g/ha ([6]; 168 h, 7 DAA): 85%
- pest or weed control at 280 g/ha ([6]; 336 h, 14 DAA): 90%
- pest or weed control at 560 g/ha ([6]; 336 h, 14 DAA): 87.5%
- pest or weed control at 280 g/ha ([6]; 504 h, 21 DAA): 80%
- pest or weed control at 560 g/ha ([6]; 504 h, 21 DAA): 100%
- pest or weed control at 280 g/ha ([7]; 168 h, 7 DAA): 77.5%
- pest or weed control at 560 g/ha ([7]; 168 h, 7 DAA): 82.5%
- pest or weed control at 280 g/ha ([7]; 336 h, 14 DAA): 92.5%
- pest or weed control at 560 g/ha ([7]; 336 h, 14 DAA): 96.5%
- pest or weed control at 280 g/ha ([7]; 504 h, 21 DAA): 97.5%
- pest or weed control at 560 g/ha ([7]; 504 h, 21 DAA): 99%

From US20260042731A1, “(2,4-DICHLOROPHENOXY)ACETIC ACID ANALOGS” (CORTEVA AGRISCIENCE LLC, priority 2022, published 2026)
